The text below walks through data of ChEMBL document CHEMBL1955798, “Novel coumarins and 2-thioxo-coumarins as inhibitors of the tumor-associated carbonic anhydrases IX and XII” (Bioorg Med Chem, 2012).

One may read the Ki as a measure of affinity in units of concentration, obtained from inhibition or displacement.

Experiment [1] addresses Carbonic anhydrase 1 (Homo sapiens, UniProt P00915). The experiment is described as follows: Inhibition of human carbonic anhydrase 1 after 6 hrs by stop-flow CO2 hydration assay.
Experiment [2] addresses Carbonic anhydrase 2 (Homo sapiens, UniProt P00918). The experiment is described as follows: Inhibition of human carbonic anhydrase 2 after 6 hrs by stop-flow CO2 hydration assay.
Experiment [3] addresses Carbonic anhydrase 12 (Homo sapiens, UniProt O43570). Put plainly: Inhibition of human carbonic anhydrase 12 after 6 hrs by stop-flow CO2 hydration assay.
The target of experiment [4] is Carbonic anhydrase 9 (Homo sapiens, UniProt Q16790). The experiment is described as follows: Inhibition of human carbonic anhydrase 9 after 6 hrs by stop-flow CO2 hydration assay.

Carbonic anhydrase 12, sequence (O43570 whole entry): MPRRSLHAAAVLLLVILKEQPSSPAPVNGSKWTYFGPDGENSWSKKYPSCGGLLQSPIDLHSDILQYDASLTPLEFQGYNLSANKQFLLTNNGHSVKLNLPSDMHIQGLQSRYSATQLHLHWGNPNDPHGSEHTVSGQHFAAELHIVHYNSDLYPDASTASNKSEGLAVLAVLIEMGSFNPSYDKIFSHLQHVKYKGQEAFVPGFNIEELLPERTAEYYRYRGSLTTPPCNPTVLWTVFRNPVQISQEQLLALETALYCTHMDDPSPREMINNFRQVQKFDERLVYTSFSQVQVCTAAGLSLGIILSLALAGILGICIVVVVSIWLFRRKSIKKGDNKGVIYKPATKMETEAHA
Carbonic anhydrase 1, sequence (P00915 whole entry): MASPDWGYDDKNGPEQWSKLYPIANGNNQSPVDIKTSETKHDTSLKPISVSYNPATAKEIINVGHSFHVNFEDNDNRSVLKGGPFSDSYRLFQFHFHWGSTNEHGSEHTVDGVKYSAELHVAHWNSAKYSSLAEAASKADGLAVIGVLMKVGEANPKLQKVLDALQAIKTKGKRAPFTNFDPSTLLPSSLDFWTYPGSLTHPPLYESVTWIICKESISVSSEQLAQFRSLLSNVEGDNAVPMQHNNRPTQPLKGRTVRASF

`C=CCOc1ccc2ccc(=O)oc2c1` [7-ALLYLOXYCOUMARIN]: the Ki is 72900 nM in experiment [1], over 200000 nM in experiment [2], 640 nM in experiment [3] and 730 nM in experiment [4].
The compound `CC(C)(C)[Si](C)(C)Oc1ccc2oc(=O)ccc2c1` showed a Ki in experiment [4] of 800 nM.
Take `Oc1ccc2ccc(=S)oc2c1`: the Ki in experiment [2] is over 200000 nM; in experiment [4], 780 nM.
`Cc1ccc(S(=O)(=O)OCCOc2ccc3ccc(=O)oc3c2)cc1`: the values for the Ki in experiment [2] and in experiment [4] were over 200000 nM and 530 nM, respectively.
In the same order, the values of `O=c1ccc2ccc(OCCF)cc2o1` are over 200000 nM and 680 nM.
In the same order, the values of `Cc1cc(=O)oc2cc(NC(=O)OC(C)(C)C)ccc12` are over 200000 nM and 970 nM.
`C=CCOc1ccc2oc(=S)ccc2c1`: the affinity in experiment [4] corresponds to a Ki of 3260 nM.
For `O=c1ccc2ccc(OCCO)cc2o1`, the inhibition constant (Ki) is over 200000 nM in experiment [2] and 920 nM in experiment [4].
In the same order, the values of `CC(=O)Nc1ccc2c(C)cc(=O)oc2c1` are over 200000 nM and 390 nM.
As to `Cc1cc(C)cc(NC(=O)Nc2ccc3c(C)cc(=O)oc3c2)c1`, in experiment [2], the inhibitory constant (Ki) is over 200000 nM.
In the case of `CC(C)(C)[Si](C)(C)Oc1ccc2ccc(=S)oc2c1`, the Ki in experiment [2] is over 200000 nM; in experiment [4], 960 nM.
For the compound `Oc1ccc2oc(=S)ccc2c1`, in experiment [4], the affinity corresponds to a Ki of 800 nM. That is a sub-micromolar value.
On to `CC(C)(C)[Si](C)(C)Oc1ccc2oc(=S)ccc2c1`, for which the inhibition constant Ki is over 200000 nM in experiment [2] and 860 nM in experiment [4].
In the same order, the values of `C=CCOc1ccc2ccc(=S)oc2c1` are over 200000 nM and 3230 nM.
Consider `C=CCOc1cc(=O)oc2ccccc12`, for which the Ki in experiment [2] is over 200000 nM; in experiment [4], 210 nM.
Consider `C=CCOc1cc(=S)oc2ccccc12`, for which the inhibition constant Ki in experiment [2] was over 200000 nM.
Turning to `C=CCOc1ccc2oc(=O)ccc2c1`, the results for the Ki in experiment [2] and in experiment [4] were over 200000 nM and 930 nM, respectively.
